US20230277569A1, “Compositions and Methods for Treating, Ameliorating and/or Preventing Cancer and Kits for the Same” (priority 2022, published 2023)
Entries after “also recorded” stand apart in the source; their conditions may differ. Like-named read-outs stand apart in the source and are kept apart here.

Columns and labels:
Cav1.2 = Cav1.2 (Homo sapiens, UniProt Q13936); experiment: Ion channel screening, Cav1.2; format: cell-based; conditions: n=34, pulse 2, read-out: inhibition of Cav1.2 currents
beagle dogs = experiment: Toxicity in beagle dogs, IV infusion for 36 d; format: in vivo
Method: Eighteen male and female (5-6 mo old) purebred beagle dogs (Cumberland, Va.) were acclimated for 47 d (20 to 26° C., relative humidity 30-70%, 10 or greater air changes/h, and a 12-h light/dark cycle) prior to study initiation. Animals were given water ad libitum and Certified Canine Diet #5007 (PMI Nutrition International Certified LabDiet®) for 4 to 5 h each day. At study initiation, animal body weights ranged from 8.6 to 11.5 kg for males and 6.0 to 9.4 kg for females. At least 1 week prior to initiation of dosing, animals were fasted overnight, anesthetized, and a catheter attached to a subcutaneous vascular access port was surgically implanted into a jugular vein. Animals were acclimated to infusion jackets prior to catheter implantation surgery. Animals were infused with sterile saline at a dose rate of 5 mL/h when the vascular access ports were accessed and when animals were connected to the infusion system (except when dosed with the test or vehicle control article). The patency of each catheter was checked as needed. Prednisolone tablets were administered orally at 2 mg/kg the night prior to dosing. Diphenhydramine (5 mg/kg; IM injection 0.1 mL/kg, 50 mg/mL) was administered prior to dosing and post the start of infusion (d 1 only). Male and female dogs received dose levels of Gamitrinib of 1.25, 3.33 and 6.25 mg/kg/dose formulated as indicated above during a 1 h infusion on d 1, 8, 11, 15, 18, 22, 25, 29, 32, and 36 at a volume of 2 mL/kg. The vehicle control was as above. […] Dosing was stopped, and 23 of 24 animals were administered additional diphenhydramine, 11 were administered Flunixin meglumine and buprenorphine, and 6 were administered acepromazine. Symptoms subsided in all animals after completion of these interventions. As a result of these observations, the polysorbate levels, which were increased from 0.025% (w/v) to 0.125% (w/v) to minimize precipitation, were returned to the original concentrations; 2 mg/kg prednisone was administered orally the night prior to dosing; and the diphenhydramine pretreatment dose was updated to 5 mg/kg 15 to 30 min prior to dosing. Detailed observations were conducted for each animal up to seven times during the predose phase, prior to dosing on d 1, 8, 15, 22, 29, and 36 of the dosing phase, and on d 1, 7, and 14 of the recovery phase. Blood samples (1 mL) were collected via the cephalic vein 5, 15, and 30 min and 1, 4, 8, and 24 h post the end of infusion on d 8 and 36 of the dosing phase. Formalin-fixed and paraffin-embedded tissue samples collected at the end of the study (d 39) were processed for histologic examination.

melanoma cell lines = conditions: melanoma lines of NCI 60 screen; read-out: IC50 anticancer activity; cited from earlier work
CYP2C8 = CYP2C8 (Homo sapiens, UniProt P10632); experiment: CYP inhibition in liver microsomes, CYP2C8; format: in vitro ADME; conditions: human liver microsomes 0.1 mg/mL
Method: (§4) After addition of prototypical CYP substrates in 250 μL, samples were incubated for 10 min (CYP1A2, CYP2B6, CYP2C9, and CYP3A4) or 20 min (CYP2C8) at 37° C. in 5% CO2. […] Samples were analyzed for metabolite formation by LC-MS/MS. The results were expressed using the peak area ratio of analyte to internal standard, based on the calibration curves.
(§5) where Range=fitted uninhibited value, s=slope factor, x=inhibitor concentration, y=% control activity.

CYP2C9 = CYP2C9 (Homo sapiens, UniProt P11712); experiment: CYP inhibition in liver microsomes, CYP2C9; format: in vitro ADME; conditions: human liver microsomes 0.1 mg/mL
Method: as §4, §5

CYP1A2 = CYP1A2 (Homo sapiens, UniProt P05177); experiment: CYP inhibition in liver microsomes, CYP1A2; format: in vitro ADME; conditions: human liver microsomes 0.1 mg/mL
Method: as §4, §5

[1] = test system: breast adenocarcinoma cell lines; conditions: breast adenocarcinoma lines of NCI 60 screen; read-out: IC50 anticancer activity; cited from earlier work
plasma proteins = experiment: Plasma protein binding (rapid equilibrium dialysis); format: in vitro ADME, human; conditions: 2 μg/mL, 4-h incubation, 37° C.
Method: (§6) Spiked plasma samples were prepared by adding 12 μL of each working solution into 1.2 mL of blank plasma to a final concentration of 2 μg/mL. Plasma protein binding incubations were performed in triplicate by adding 500 μL of PBS into each white chamber and 300 μL of spiked plasma into each red chamber of the RED device. The device was covered with a sealing tape and placed on an orbital shaker at a shaking speed of 100 rpm at 37° C. in 5% CO2. After a 4-h incubation, a 40 μL plasma sample was transferred from each red chamber to the wells of a 96-well plate containing 160 μL of PBS. A 160 μL PBS aliquot from each white chamber was transferred to the wells of the same plate containing 40 μL of blank plasma. After matching the matrix for all samples, 400 μL aliquots of stop solution were added to each well of the 96-well sample plate. […] A 100 μL aliquot of supernatant from each well was transferred to a new 96-well sample plate and further mixed with 100 μL of Milli-Q (ultrapure) water before analysis by liquid chromatography—tandem mass spectrometry (LC-MS/MS).

[2] = as above; format: in vitro ADME, human; conditions: human, plasma, 4-h incubation, 37° C.
Method: as §6

in vitro = conditions: human
Method: (§1) Caco2 cells (2×10^4/well) were seeded onto apical chambers of a 24-multiwell insert plate and incubated at 37° C. in 5% CO2. After 21 d, the transepithelial electrical resistance (TEER) in ohms was read for each insert well as a quality control for monolayer integrity (>900 ohms or 300 ohms cm^2). The cell monolayers were incubated with 400 μL transport buffer on the apical (A) and 1.2 mL on the basolateral (B) sides for 30 min. After preincubation, dosing solution was added to the apical (400 μL, A-to-B, donor) or basolateral sides (1.2 mL, B-to-A, donor) or receiving buffer to the apical (400 μL, B-to-A, receiver) or basolateral sides (1.2 mL, A-to-B, receiver) for 90 min at 37° C. in 5% CO2. […] Papp·A>B (nm/s) was calculated with Equation 1.
(§2) Papp Efflux Ratio (ER) was calculated with Equation 2.
(§3) Propranolol (high permeability marker, non-P-gp substate) and digoxin (P-gp substrate) were used as controls.

[3] = test system: Caco2 intestinal cell monolayer; experiment: in vitro; conditions: human, Caco-2, 90 min
Method: as §1, §2, §3

Nav1.5 = Nav1.5 (Homo sapiens, UniProt Q14524); experiment: Ion channel screening, Nav1.5; format: cell-based; conditions: n=3, pulse 26, read-out: inhibition of Nav1.5 currents
Description: The parameters measured were the maximum inward current evoked on stepping to −20 mV from the 1st and 26th pulse. Human Kv4.3/KChIP2 currents were evoked from a holding potential of −80 mV by a series of four 500 msec pulses to 0 mV using a 1000 msec interval between pulses. The parameter measured was the amplitude of the outward current 50 msec after the onset of the 4th voltage step to 0 mV. Human Cav1.2 currents were evoked by 2 pulses to −10 mV from a holding potential of −100 mV. The parameters measured were the maximum inward currents evoked on stepping to −10 mV from the holding potential of −100 mV for the 1st and 2nd pulse. Human Kv1.5 currents were evoked by a single pulse from a holding potential of −80 mV to a potential of 0 mV for 4 sec before returning to −80 mV. The parameters measured were the maximum amplitude of outward currents evoked at the beginning of the voltage pulse and at the end of the voltage step from −80 mV to 0 mV. Human KCNQ1/minK currents were evoked by a single pulse delivered from a holding potential of −80 mV to +60 mV for 4 sec before returning to −80 mV. The parameter measured was the maximum outward current evoked on stepping to +60 mV from the holding potential of −80 mV. hERG currents were evoked by a three-pulse protocol where voltage was first stepped to +40 mV for two sec from a holding potential of −80 mV to inactivate hERG channels. […]

CYP3A4 = CYP3A4 (Homo sapiens, UniProt P08684); experiment: CYP inhibition in liver microsomes, CYP3A4; format: in vitro ADME; conditions: human liver microsomes 0.1 mg/mL
Sequence of CYP3A4 (P08684 whole entry): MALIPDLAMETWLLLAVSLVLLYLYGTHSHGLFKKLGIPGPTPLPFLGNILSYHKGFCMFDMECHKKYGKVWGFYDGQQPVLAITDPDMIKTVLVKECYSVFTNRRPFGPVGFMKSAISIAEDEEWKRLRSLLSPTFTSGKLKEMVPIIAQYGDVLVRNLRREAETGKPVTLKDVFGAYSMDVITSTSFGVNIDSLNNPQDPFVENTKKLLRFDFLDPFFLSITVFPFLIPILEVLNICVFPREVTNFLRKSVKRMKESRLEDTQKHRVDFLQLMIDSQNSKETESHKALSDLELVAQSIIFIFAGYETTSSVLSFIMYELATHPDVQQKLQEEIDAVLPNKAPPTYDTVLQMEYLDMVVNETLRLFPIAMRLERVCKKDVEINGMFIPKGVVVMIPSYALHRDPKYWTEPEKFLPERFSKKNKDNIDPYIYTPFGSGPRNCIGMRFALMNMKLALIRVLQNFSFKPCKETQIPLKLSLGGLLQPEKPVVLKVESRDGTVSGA
Method: as §4, §5

Sequence of Nav1.5 (Q14524 whole entry): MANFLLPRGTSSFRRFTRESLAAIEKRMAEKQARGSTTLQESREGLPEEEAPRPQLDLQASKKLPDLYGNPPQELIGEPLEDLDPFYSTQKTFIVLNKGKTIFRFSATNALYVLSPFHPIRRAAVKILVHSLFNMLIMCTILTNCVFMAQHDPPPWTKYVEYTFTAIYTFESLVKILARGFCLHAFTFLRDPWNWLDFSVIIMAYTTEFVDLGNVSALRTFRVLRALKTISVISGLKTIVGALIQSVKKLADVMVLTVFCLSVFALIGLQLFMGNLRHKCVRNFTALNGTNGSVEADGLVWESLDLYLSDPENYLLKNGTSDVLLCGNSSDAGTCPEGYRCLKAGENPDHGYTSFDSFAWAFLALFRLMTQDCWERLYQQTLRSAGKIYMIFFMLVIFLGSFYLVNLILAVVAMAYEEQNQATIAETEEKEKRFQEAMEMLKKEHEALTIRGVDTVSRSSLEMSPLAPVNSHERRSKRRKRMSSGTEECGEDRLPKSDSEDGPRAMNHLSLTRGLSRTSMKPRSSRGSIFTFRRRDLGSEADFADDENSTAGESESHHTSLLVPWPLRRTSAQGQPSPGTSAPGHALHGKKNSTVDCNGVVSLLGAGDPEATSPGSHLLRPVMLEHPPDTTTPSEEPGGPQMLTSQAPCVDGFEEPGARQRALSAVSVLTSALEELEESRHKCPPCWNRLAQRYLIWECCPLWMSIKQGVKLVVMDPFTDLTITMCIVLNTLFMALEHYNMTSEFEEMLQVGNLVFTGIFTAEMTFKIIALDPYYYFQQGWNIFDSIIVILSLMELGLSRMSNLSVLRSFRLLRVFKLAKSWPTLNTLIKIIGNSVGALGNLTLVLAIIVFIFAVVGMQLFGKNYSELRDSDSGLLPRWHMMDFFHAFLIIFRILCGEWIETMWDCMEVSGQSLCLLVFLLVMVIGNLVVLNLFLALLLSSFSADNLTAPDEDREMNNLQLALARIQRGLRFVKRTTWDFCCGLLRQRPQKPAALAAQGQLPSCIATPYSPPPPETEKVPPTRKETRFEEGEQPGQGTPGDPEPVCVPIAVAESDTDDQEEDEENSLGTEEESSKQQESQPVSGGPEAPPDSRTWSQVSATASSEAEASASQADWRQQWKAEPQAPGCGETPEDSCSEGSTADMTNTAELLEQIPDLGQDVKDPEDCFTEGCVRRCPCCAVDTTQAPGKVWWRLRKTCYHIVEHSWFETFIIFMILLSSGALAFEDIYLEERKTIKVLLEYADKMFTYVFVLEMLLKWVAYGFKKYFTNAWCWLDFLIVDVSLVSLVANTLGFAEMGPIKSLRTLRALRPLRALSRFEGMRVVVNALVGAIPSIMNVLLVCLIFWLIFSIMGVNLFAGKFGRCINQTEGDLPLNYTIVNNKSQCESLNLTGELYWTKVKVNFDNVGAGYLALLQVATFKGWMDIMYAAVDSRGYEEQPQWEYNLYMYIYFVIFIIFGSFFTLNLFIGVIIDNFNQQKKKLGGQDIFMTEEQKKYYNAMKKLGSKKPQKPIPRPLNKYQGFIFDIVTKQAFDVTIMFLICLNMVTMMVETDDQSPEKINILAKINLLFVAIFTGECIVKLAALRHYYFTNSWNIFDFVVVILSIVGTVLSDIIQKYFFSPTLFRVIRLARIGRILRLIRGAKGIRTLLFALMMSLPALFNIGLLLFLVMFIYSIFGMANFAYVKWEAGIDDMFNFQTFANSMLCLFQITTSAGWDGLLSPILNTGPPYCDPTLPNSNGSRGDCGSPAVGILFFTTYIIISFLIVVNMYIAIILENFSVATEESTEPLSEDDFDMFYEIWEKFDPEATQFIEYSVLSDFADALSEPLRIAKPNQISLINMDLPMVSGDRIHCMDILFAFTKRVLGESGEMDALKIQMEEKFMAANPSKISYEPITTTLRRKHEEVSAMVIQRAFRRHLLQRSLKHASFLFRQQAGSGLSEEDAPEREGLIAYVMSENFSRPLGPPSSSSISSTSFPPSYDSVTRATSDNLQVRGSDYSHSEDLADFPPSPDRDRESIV
Sequence of CYP2C8 (P10632 whole entry): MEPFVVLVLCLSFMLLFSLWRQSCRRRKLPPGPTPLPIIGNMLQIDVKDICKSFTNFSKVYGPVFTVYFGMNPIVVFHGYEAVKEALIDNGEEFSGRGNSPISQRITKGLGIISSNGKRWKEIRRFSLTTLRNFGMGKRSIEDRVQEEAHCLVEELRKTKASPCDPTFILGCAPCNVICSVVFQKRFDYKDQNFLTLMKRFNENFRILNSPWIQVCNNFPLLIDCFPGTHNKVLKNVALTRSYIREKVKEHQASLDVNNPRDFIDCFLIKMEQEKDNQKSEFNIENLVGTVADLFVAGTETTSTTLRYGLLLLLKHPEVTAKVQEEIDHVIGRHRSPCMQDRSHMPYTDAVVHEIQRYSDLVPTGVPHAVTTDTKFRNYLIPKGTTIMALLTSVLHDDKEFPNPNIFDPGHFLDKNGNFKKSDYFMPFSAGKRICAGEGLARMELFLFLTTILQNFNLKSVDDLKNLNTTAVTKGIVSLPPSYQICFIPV
Sequence of CYP2C9 (P11712 whole entry): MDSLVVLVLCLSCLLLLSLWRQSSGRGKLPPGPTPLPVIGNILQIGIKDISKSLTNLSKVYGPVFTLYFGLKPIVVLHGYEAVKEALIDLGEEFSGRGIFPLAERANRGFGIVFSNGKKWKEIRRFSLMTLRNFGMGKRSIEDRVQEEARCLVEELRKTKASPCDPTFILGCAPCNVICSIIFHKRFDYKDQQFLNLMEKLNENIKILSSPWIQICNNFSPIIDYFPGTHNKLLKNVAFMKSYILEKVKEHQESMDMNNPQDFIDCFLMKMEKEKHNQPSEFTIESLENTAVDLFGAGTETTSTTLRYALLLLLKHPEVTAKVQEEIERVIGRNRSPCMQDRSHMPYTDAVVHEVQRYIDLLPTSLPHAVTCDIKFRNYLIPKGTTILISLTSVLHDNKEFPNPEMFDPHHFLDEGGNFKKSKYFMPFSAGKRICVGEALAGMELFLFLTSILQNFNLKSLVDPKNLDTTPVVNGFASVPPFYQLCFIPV
Sequence of CYP1A2 (P05177 whole entry): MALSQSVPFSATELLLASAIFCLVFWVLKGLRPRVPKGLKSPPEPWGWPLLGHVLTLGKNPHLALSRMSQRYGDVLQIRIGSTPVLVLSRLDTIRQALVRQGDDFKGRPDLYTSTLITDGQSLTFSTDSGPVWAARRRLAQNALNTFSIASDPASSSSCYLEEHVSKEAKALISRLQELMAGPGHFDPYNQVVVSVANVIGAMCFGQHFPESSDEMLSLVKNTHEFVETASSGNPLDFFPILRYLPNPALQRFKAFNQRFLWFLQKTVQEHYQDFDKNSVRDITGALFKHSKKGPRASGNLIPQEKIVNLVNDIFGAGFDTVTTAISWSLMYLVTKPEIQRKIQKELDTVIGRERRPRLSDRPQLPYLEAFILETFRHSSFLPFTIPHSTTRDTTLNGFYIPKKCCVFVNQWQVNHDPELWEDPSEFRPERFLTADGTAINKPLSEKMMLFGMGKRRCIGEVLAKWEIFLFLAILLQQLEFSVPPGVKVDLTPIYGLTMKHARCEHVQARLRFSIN

With CO[C@H]1/C=C\C=C(/C)C(=O)NC2=CC(=O)C(NCCCCCC[P+](c3ccccc3)(c3ccccc3)c3ccccc3)=C(C[C@@H](C)C[C@H](OC)[C@H](O)[C@@H](C)/C=C(\C)[C@@H]1OC(N)=O)C2=O [Gamitrinib, 17-Demethoxy-17-((6-(triphenylphosphonio)hexyl)amino)geldanamycin] the inhibition at 10 µM (Cav1.2) was 12.2 ± 1.5%, the NOAEL (beagle dogs; beagle dogs, IV for 36 d) was 3.33 mg/kg/dose and the “highest non-severely toxic dose (HNSTD)” value (beagle dogs; beagle dogs, IV for 36 d) was 6.25 mg/kg/dose. For the same molecule, the “Bone marrow and liver parameters” value (beagle dogs; dog, in vivo) was “unremarkable”, the “changes in organ weights” value (beagle dogs; dog, in vivo) was “No Gamitrinib-related changes” and the “serum urea nitrogen and creatinine” value (beagle dogs; dogs (both sexes), 6.25 mg/kg/dose, 6.25 mg/kg) was “trend of increased serum urea nitrogen and creatinine; also recorded: modest elevation of urea nitrogen and creatinine concentrations”. For the same molecule, the kidney microscopic finding (beagle dogs; dogs, 6.25 mg/kg/dose, reversible during recovery) was “slight to moderate kidney tubular degeneration/regeneration”, the “alterations in body weight or other clinical observations” value (beagle dogs; dogs, 1.25, 3.33 and 6.25 mg/kg/dose) was “no alterations” and the Body weight (beagle dogs; female dogs, 3.33 mg/kg, day 1) was 7.6 ± 0.9 kg. It also gave a Body weight (beagle dogs; female dogs, 3.33 mg/kg, day 8) of 7.6 ± 0.9 kg, a Body weight (beagle dogs; female dogs, 3.33 mg/kg, day 15) of 7.6 ± 1.06 kg and a Body weight (beagle dogs; female dogs, 3.33 mg/kg, day 22) of 7.5 ± 0.75 kg. The Body weight (beagle dogs; female dogs, 3.33 mg/kg, day 29) was 7.6 ± 0.7 kg, the Body weight (beagle dogs; female dogs, 3.33 mg/kg, day 36) was 7.5 ± 0.8 kg and the Body weight (beagle dogs; female dogs, 6.25 mg/kg, day 1) was 7.7 ± 0.57 kg. It also gave a Body weight (beagle dogs; female dogs, 6.25 mg/kg, day 8) of 7.7 ± 0.62 kg, a Body weight (beagle dogs; female dogs, 6.25 mg/kg, day 15) of 7.4 ± 0.54 kg and a Body weight (beagle dogs; female dogs, 6.25 mg/kg, day 22) of 7.2 ± 0.6 kg. It also gave a Body weight (beagle dogs; female dogs, 6.25 mg/kg, day 29) of 7.3 ± 0.58 kg, a Body weight (beagle dogs; female dogs, 6.25 mg/kg, day 36) of 7.3 ± 0.59 kg and a Body weight (beagle dogs; male dogs, 3.33 mg/kg, day 1) of 10.1 ± 1.1 kg. The Body weight (beagle dogs; male dogs, 3.33 mg/kg, day 8) was 10 ± 1.04 kg, the Body weight (beagle dogs; male dogs, 3.33 mg/kg, day 15) was 9.9 ± 1.15 kg and the Body weight (beagle dogs; male dogs, 3.33 mg/kg, day 22) was 10.2 ± 1.21 kg. The Body weight (beagle dogs; male dogs, 3.33 mg/kg, day 29) was 10.1 ± 1.21 kg, the Body weight (beagle dogs; male dogs, 3.33 mg/kg, day 36) was 10 ± 1.36 kg and the Body weight (beagle dogs; male dogs, 6.25 mg/kg, day 1) was 9.9 ± 0.83 kg. For the same molecule, the Body weight (beagle dogs; male dogs, 6.25 mg/kg, day 8) was 9.8 ± 0.85 kg, the Body weight (beagle dogs; male dogs, 6.25 mg/kg, day 15) was 9.5 ± 0.57 kg and the Body weight (beagle dogs; male dogs, 6.25 mg/kg, day 22) was 9.2 ± 0.57 kg. For the same molecule, the Body weight (beagle dogs; male dogs, 6.25 mg/kg, day 29) was 9.2 ± 0.46 kg, the Body weight (beagle dogs; male dogs, 6.25 mg/kg, day 36) was 9.1 ± 0.58 kg and the IC50 (melanoma cell lines) was 360 to 2700 nM. The IC50 (CYP2C8) was 8000 nM, the IC50 (CYP2C9) was 1100 nM and the IC50 (CYP1A2) was 32900 nM. For the same molecule, the IC50 [1] was 160 to 3300 nM, the “bound to plasma proteins” value (plasma proteins) was 99.3±0.07% and the fraction unbound at 4 h, 2 μg/mL ([2]; read-out: average free fraction) was 0.007 ± 0.0007. For the same molecule, the fraction unbound at 4 h, 2 μg/mL ([2]; read-out: bound to plasma proteins) was under 0.01, the Papp B→A at 90 min (in vitro; Caco-2) was 1.09 ×10⁻⁶ cm/s and the efflux ratio at 90 min (in vitro; Caco-2, Papp Efflux Ratio (ER)) was 5.77. For the same molecule, the Papp A→B at 90 min (in vitro; Caco-2, Papp) was 0.19 ×10⁻⁶ cm/s, the efflux ratio at 90 min (in vitro; Caco-2, Pexact Efflux Ratio) was 5.54 and the Papp A→B at 90 min (in vitro; Caco-2, Pexact) was 0.197 ×10⁻⁶ cm/s. For the same molecule, the “Pexact, B > A” value [3] was 1.092 ×10⁻⁶ cm/s, the inhibition at 10 µM (Nav1.5) was 22.3 ± 5.3% and the IC50 (CYP3A4) was 120 to 200 nM.
